According to article PMC11901902, “Design, Synthesis, and Cytotoxicity Evaluation of Novel Indolin-2-One Based Molecules on Hepatocellular Carcinoma HepG2 Cells as Protein Kinase Inhibitors” (Molecules, 2025):

Tests used:
caspase 3/7 = assay: ELISA of caspase 3/7 in treated HepG-2 cells; type: cell-based, human; settings: for increase of caspase 3/7 levels compared with untreated cells: HepG-2, compound at its IC50, 24 h; for Concentration of caspases 3/7: HepG-2, compound at its IC50, ± S.E.M, control 11.90±1.71
Protocol: (§1) HepG2 cells were cultured in RPMI 10% + 5%FBS penicillin/streptomycin and were incubated at a humidity 5% CO2 and maintained at 37 °C. […] HepG2 cells were cultured as a monolayer in T-25 flasks and were seeded to attain 30% confluency prior to treatment. The main 100 mM stock dissolved in DMSO was diluted with the cell culture medium in order to reach the previously determined IC50 concentration of each of the three preparations. After that, HepG2 cells were collected via trypsinization and centrifuged at 10,000 rpm. The pellet was then rinsed with PBS and lysed in RIPA lysis buffer at 4 °C for 45 min, then centrifuged at 14,000 rpm for 20 min to remove the cellular debris. Lysates were then collected and stored at […] for protein determination. The levels of p53, p21, Fas-L, Bax, Bcl-2, and caspase 3/7 were assessed using the human P53 ELISA kit (Catalog No. ABIN6962151), P21 ELISA kit (Catalog No. ABIN6966175), Human Apoptosis Ligand (FAS-L), Bax ELISA kit, Human Factor-Related. Bcl-2 ELISA kit ELISA kit, and caspase3/7 ELISA kit (Elabscience Biotechnology Co., Wuhan, Hubei, China). The procedure of the used kits was done according to the manufacturer’s instructions. Briefly, equal amounts of cell lysates were loaded and then probed with specific antibodies. The samples were measured at 450 nm in ROBONEK P2000 ELISA reader. The analysis was confirmed with three different sets of extracts. All experiments were done in triplicate (Tables S6–S9).

Bcl-2 = assay: ELISA of Bcl-2 in treated HepG-2 cells; type: cell-based, human; settings: HepG-2, compound at its IC50; ± S.E.M; control 360.90±31.71
Protocol: as §1, with “The analysis was confirmed with three different sets of extracts. All experiments were done in triplicate (Tables S6–S9).” left out

p21 = assay: ELISA of p21 in treated HepG-2 cells; type: cell-based, human; settings: HepG-2, compound at its IC50, 24 h
Protocol: as §1, with “The analysis was confirmed with three different sets of extracts. All experiments were done in triplicate (Tables S6–S9).” left out

CDK-4 = target: T1, CDK-4 (Homo sapiens, UniProt P11802); assay: Kinase-Glo Plus luminescence kinase inhibition assay, CDK-4; type: biochemical; settings: 10 µM ATP, 30 °C, 40 min; mean ± SEM
T1 construct: purchased BPS Bioscience 79674
T1 sequence (P11802 whole entry): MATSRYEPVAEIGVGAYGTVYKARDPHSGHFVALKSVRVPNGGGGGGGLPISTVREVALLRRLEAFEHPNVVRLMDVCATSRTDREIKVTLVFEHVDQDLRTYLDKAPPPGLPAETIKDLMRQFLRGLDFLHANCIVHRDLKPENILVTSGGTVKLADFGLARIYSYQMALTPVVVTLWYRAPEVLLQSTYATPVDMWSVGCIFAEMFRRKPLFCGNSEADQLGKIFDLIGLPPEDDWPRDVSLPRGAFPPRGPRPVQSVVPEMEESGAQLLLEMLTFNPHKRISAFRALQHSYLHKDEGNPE
T1 sequence (P30281 whole entry partner): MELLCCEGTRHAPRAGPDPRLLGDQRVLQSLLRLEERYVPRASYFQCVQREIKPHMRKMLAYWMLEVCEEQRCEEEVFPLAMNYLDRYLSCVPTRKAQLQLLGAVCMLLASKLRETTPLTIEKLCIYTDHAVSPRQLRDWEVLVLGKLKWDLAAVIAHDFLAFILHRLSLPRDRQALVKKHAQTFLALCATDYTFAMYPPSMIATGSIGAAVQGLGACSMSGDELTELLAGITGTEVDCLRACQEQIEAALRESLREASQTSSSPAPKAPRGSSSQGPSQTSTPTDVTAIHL
Protocol: (§2) The enzyme inhibition assay for the tested molecules was performed at BPS Bioscience Corporation, San Diego, CA, USA. The following materials served as the enzyme sources, Poly (Glu, Tyr) sodium salt (4:1, Glu:Tyr) (Sigma#P7244) served as the standardized substrate, and the Kinase-Glo Plus Luminescence kinase assay kit (Promega # V3772) was used. […] Glo Plus luminescence kinase assay kits. The assays were performed using Kinase-Glo Plus luminescence (Promega Corporation, Madison, WI, USA).
(§3) The tested molecules 9, 20, and indurbin were diluted to 100 µL in DMSO (10%), and 5 µL of the solution was added to a 50-µL enzyme reaction until the final concentration of DMSO was 1% in all of reactions. The enzymatic reactions were conducted at 30 °C for 40 min. The reaction mixture contained enzyme substrate and respective kinases. After the enzymatic reaction, 50 µL of enzyme-Glo Plus luminescence […] assay solution (Promega) was added to each reaction, and the plate was incubated for 5 min at room temperature. The luminescence signal was measured using a BioTek Synergy 2 microplate reader. The luminescence data were analyzed using the computer software GraphPad Prism. The difference between luminescence intensities in the absence of enzyme (Lut) and in the presence of enzyme (Luc) was defined as 100% activity (Lut − Luc). […] The IC50 value was determined using GraphPad Prism software. […]
(§4) Glo Plus luminescence kinase assay kits were used in these assays. […] The assay measures kinase activity by quantitating the amount of ATP remaining in the solution following kinase reaction. […] After the enzymatic reaction, 50 µL of Kinase-Glo Plus Luminescence kinase assay solution (Promega) was added to each reaction, and the plate was incubated for 5 min at room temperature. The luminescence signal was measured using a BioTek Synergy 2 microplate reader. […] The luminescence data were analyzed using the Graphpad Prism software.

HepG2 cells = assay: Annexin-V-FITC/PI apoptosis assay; type: cell-based, human; settings: HepG2, compound at its IC50, 24 h
Protocol: Then, the cells were washed with PBS and detached by trypsin. The detached cells were collected into a 15-mL centrifuged tube, washed with ice-cold PBS twice, and centrifuged at 1200 rpm for 5 min. A volume of 0.1 mL binding buffer was added to the treated HepG-2 cells, followed by adding 5 μL of annexin V-FITC and 5 μL of 50 μg/mL PI staining reagents. After mixing and reacting at 25 °C for 15 min in the dark, the apoptotic cell percentages were analyzed by a flow cytometer [FACS Calibur flow cytometer (BD Biosciences)] (Table S5).

EGFR = target: T2, EGFR (Homo sapiens, UniProt P00533); assay: Kinase-Glo Plus luminescence kinase inhibition assay, EGFR; type: biochemical; settings: 10 µM ATP, 30 °C, 40 min; mean ± SEM
T2 construct: purchased BPS Bioscience 40721
T2 sequence (P00533 25-1210): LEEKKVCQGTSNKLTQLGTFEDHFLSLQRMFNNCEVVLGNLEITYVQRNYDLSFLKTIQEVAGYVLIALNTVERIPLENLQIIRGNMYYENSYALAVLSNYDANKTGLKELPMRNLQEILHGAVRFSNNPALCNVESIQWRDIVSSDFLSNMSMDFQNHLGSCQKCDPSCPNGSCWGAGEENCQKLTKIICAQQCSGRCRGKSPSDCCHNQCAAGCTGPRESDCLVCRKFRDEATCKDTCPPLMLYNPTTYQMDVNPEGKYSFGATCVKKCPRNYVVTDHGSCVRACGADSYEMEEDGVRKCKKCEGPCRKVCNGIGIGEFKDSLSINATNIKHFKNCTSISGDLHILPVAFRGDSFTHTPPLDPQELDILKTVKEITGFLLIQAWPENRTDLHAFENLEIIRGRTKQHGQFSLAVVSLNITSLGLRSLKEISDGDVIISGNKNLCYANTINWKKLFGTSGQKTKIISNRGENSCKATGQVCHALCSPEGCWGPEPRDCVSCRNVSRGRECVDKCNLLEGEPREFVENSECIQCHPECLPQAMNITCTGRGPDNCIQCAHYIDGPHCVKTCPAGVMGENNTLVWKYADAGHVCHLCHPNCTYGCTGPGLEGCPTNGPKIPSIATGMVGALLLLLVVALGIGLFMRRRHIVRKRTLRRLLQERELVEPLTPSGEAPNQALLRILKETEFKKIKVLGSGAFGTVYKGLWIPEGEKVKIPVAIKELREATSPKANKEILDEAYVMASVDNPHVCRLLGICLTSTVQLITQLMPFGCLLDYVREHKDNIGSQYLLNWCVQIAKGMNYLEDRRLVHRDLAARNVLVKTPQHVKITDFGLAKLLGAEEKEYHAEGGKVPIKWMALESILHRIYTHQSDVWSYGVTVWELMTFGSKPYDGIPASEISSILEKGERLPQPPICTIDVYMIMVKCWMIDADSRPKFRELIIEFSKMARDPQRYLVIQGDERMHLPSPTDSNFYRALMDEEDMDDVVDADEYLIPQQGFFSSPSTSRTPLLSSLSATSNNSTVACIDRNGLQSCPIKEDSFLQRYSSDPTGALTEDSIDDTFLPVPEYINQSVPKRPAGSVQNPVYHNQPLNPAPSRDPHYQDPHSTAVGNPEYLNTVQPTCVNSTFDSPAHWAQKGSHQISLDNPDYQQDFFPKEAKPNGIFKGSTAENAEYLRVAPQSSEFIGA
Protocol: as §2, §3, §4

VEGFR-2 = target: T3, VEGFR-2 (Homo sapiens, UniProt P35968); assay: Kinase-Glo Plus luminescence kinase inhibition assay, VEGFR-2; type: biochemical; settings: 10 µM ATP, 30 °C, 40 min; mean ± SEM
T3 construct: purchased BPS Bioscience 40301
T3 sequence (P35968 20-1356): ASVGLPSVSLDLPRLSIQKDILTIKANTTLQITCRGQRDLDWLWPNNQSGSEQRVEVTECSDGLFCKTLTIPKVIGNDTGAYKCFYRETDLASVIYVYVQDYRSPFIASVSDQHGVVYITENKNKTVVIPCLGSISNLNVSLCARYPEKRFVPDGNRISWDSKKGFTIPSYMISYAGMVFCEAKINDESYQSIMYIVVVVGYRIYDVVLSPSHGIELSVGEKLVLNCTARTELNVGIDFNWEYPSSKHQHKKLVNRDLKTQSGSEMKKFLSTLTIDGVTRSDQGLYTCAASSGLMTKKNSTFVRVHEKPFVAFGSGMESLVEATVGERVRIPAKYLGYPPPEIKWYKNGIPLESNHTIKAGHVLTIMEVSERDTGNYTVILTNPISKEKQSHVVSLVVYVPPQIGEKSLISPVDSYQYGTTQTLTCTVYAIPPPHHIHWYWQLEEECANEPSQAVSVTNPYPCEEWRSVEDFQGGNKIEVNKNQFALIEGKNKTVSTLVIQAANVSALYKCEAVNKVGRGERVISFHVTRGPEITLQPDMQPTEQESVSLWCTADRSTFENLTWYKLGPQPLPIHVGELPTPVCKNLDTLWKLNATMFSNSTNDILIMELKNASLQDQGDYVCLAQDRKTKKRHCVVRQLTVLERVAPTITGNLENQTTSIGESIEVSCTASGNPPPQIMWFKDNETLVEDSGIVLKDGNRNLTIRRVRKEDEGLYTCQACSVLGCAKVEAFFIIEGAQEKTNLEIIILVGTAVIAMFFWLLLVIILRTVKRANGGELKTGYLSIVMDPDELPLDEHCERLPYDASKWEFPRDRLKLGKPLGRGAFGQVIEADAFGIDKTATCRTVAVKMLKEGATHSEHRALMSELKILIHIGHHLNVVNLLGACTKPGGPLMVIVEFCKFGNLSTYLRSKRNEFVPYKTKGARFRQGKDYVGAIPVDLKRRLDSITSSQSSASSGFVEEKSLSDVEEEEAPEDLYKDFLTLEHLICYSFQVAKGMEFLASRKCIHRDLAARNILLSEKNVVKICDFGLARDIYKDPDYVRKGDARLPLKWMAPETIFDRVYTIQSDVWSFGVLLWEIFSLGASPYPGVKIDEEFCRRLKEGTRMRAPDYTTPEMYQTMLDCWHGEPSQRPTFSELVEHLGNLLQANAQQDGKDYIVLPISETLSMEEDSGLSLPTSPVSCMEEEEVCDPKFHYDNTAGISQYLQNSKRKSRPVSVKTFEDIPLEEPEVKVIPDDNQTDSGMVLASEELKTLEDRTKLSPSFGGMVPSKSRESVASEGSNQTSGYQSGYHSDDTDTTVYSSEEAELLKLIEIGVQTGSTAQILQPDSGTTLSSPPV
Protocol: as §2, §3, §4

CDK-2 = target: T4, CDK-2 (Homo sapiens, UniProt P24941); assay: Kinase-Glo Plus luminescence kinase inhibition assay, CDK-2; type: biochemical; settings: for IC50: 10 µM ATP, 30 °C, 40 min, mean ± SEM
T4 construct: purchased BPS Bioscience 41101
Protocol: as §2
The tested molecules 9, 20, and indurbin were diluted to 100 µL in DMSO (10%), and 5 µL of the solution was added to a 50-µL enzyme reaction until the final concentration of DMSO was 1% in all of reactions. The enzymatic reactions were conducted at 30 °C for 40 min. The reaction mixture contained enzyme substrate and respective kinases. After the enzymatic reaction, 50 µL of enzyme-Glo Plus luminescence […] assay solution (Promega) was added to each reaction, and the plate was incubated for 5 min at room temperature. The luminescence signal was measured using a BioTek Synergy 2 microplate reader. The luminescence data were analyzed using the computer software GraphPad Prism. The difference between luminescence intensities in the absence of enzyme (Lut) and in the presence of enzyme (Luc) was defined as 100% activity (Lut − Luc). The values of enzyme activity percentages versus five concentrations of the small molecule were then plotted using a non-linear regression analysis of the sigmoidal dose–response curve. The IC50 value was determined using GraphPad Prism software. All experiments were repeated three times (Table S3).
Glo Plus luminescence kinase assay kits were used in these assays. The assay was done at Bioscience Laboratory BPS, California, USA. The assay measures kinase activity by quantitating the amount of ATP remaining in the solution following kinase reaction. The luminescent signal from the assay was correlated with the amount of ATP present and inversely correlated with kinase activity. […] All of the enzymatic reactions were conducted at 30 °C for 40 min. The reaction mixture contained 40 mM Tris, pH 7.4, 10 mM MgCl2, 0.1 mg/mL BSA, 1 mM DTT, 10 µM ATP, Kinase substrate, and VEGFR-2, EFGR, CDK-2 and CDK-4 enzymes. After the enzymatic reaction, 50 µL of Kinase-Glo Plus Luminescence kinase assay solution (Promega) was added to each reaction, and the plate was incubated for 5 min at room temperature. The luminescence signal was measured using a BioTek Synergy 2 microplate reader. Kinase activity assays were performed in triplicate for each concentration. The luminescence data were analyzed using the Graphpad Prism software.

Fas-L = assay: ELISA of Fas-L in treated HepG-2 cells; type: cell-based, human; settings: for increase of Fas-L expression compared to untreated control: HepG-2, compound at its IC50, 24 h; for Concentration of Fas L: HepG-2, compound at its IC50, ± S.E.M, control 15.33±1.71
Protocol: as §1

SMILES	increase of caspase 3/7 levels compared with untreated cells (caspase 3/7)	Concentration of caspases 3/7 (caspase 3/7)	Concentration of Bcl-2 (Bcl-2)	upregulation of p21 expression compared to untreated cells (p21)	IC50 (CDK-4)	Apoptosis Early (HepG2 cells)	Apoptosis Late (HepG2 cells)	Apoptosis Total (HepG2 cells)	Necrosis (HepG2 cells)	increase of cell population at late apoptosis compared with untreated control (HepG2 cells)	increase of cells in early apoptotic stage compared with untreated control (HepG2 cells)	IC50 (EGFR)	IC50 (VEGFR-2)	IC50 (CDK-2)	fold higher inhibitory effect than indirubin against CDK-2 (CDK-2; relative to indirubin)	increase of Fas-L expression compared to untreated control (Fas-L)	Concentration of Fas L (Fas-L)
O=C1Nc2ccc(Cl)cc2C1=Nc1ccc2nc[nH]c(=O)c2c1 [Compound 9, 6-(5-Chloro-2-oxo-1,2-dihydro-indol-3-ylideneamino)-3H-quinazolin-4-one]	5.3 fold	62.13 ± 5.27 pg/mL	90.15 ± 8.27 pg/mL	4.52 fold	36.4 ± 4.52 nM	5.05%	3.72%	8.77%	2.69%	around 11 fold	around 6 fold	87.5 ± 6.71 nM	56.7 ± 4.3 nM	9.39 ± 0.51 nM	4.8 fold	5.7 fold	86.11 ± 8.05 pg/mL
O=C1Nc2ccc(Cl)cc2C1=Nc1ccc(-c2nc3ccccc3c(=O)[nH]2)cc1 [Compound 20, 2-[4-(5-Chloro-2-oxo-1,2-dihydro-indol-3-ylideneamino)-phenyl]-3H-quinazolin-4-one]	3.2 fold	37.32 ± 4.82 pg/mL	160.32 ± 10.82 pg/mL	3.9 fold	244 ± 12.2 nM	4.91%	6.75%	11.66%	1.91%	~21 fold	around 6 fold	32.7 ± 1.61 nM	14.3 ± 2.7 nM	225 ± 12.6 nM		4.1 fold	62.06 ± 4.62 pg/mL
